Assay results taken from US6355799B1, “Substituted benzene compounds, process for their preparation, and herbicidal and defoliant compositions containing them” (ISK Americas Incorporated, priority 1997, dated 2002).

Tests used:
Assay type in all cases: in vivo
[1] = test system: redroot pigweed (Amaranthus retroflexus, AMARE); assay: Pre-emerge test, greenhouse herbicide activity screening; conditions: rating scale 0-100, 14 days after application
Procedure, shortened: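 Compounds in acetone were track-sprayed at 15-1000 g ai/ha (187 l/ha) on sandy loam pots: pre-emerge one day after seeding, post-emerge at 2-3 leaf stage with 0.25% v/v non-ionic surfactant. Phytotoxicity was rated 14 days later on a 0 (no damage) to 100 (complete death) scale.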

[2] = test system: barnyardgrass (Echinochloa crus-galli, ECHCG); assay: as above; conditions: rating scale 0-100, 14 days after application
Procedure, shortened: (§1)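 Compounds in acetone were track-sprayed at 187 l/ha, 15–1000 g ai/ha, onto sandy loam pots. Pre-emerge seeds were sown one day before spraying, with surface watering afterwards. Post-emerge plants were at the 2–3 leaf stage and sprayed with 0.25% v/v non-ionic surfactant. Injury was rated 0–100 at 14 days.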

[3] = test system: green foxtail (Setaria viridis, SETVI); assay: as above; conditions: rating scale 0-100, 14 days after application
Procedure, shortened: as §1

[4] = test system: ivyleaf morningglory (Ipomoea hederacea, IPOHE); assay: as above; conditions: rating scale 0-100, 14 days after application
Procedure, shortened: as §1

[5] = test system: johnsongrass (Sorghum halepense, SORHA); assay: as above; conditions: rating scale 0-100, 14 days after application
Procedure, shortened: as §1

[6] = test system: lambsquarters (Chenopodium album, CHEAL); assay: as above; conditions: rating scale 0-100, 14 days after application
Procedure, shortened: as §1

[7] = test system: large crabgrass (Digitaria sanguinalis, DIGSA); assay: as above; conditions: rating scale 0-100, 14 days after application
Procedure, shortened: as §1

[8] = test system: sicklepod (Cassia obtusifolia, CASOB); assay: as above; conditions: rating scale 0-100, 14 days after application
Procedure, shortened: as §1

[9] = test system: velvetleaf (Abutilon theophrasti, ABUTH); assay: as above; conditions: rating scale 0-100, 14 days after application
Procedure, shortened: as §1

[10] = test system: field corn (Zea mays L., var. Dekalb 535, CORN); assay: Pre-emerge test, crop safety; conditions: rating scale 0-100, 14 days after application
Procedure, shortened: as §1

[11] = test system: upland rice (Oryza sp., var. Tebonnet, RICE); assay: Pre-emerge test, crop safety; conditions: rating scale 0-100, 14 days after application
Procedure, shortened: as §1

[12] = test system: barnyardgrass (Echinochloa crus-galli, ECHCG); assay: Post-emerge test, greenhouse herbicide activity screening; conditions: post-emerge, phytotoxicity rating 0-100 at 14 days after application
Procedure, shortened: (§2)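 Rating: 0–100 visual injury, 14 DAA. Application: acetone, 187 l/ha, 15–1000 g ai/ha, flat-fan track sprayer with nozzle 40–45 cm above soil or canopy. Post-emerge runs used 0.25% v/v surfactant on 2–3 leaf plants.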

[13] = test system: green foxtail (Setaria viridis, SETVI); assay: as above; conditions: post-emerge, phytotoxicity rating 0-100 at 14 days after application
Procedure, shortened: as §2

[14] = test system: ivyleaf morningglory (Ipomoea hederacea, IPOHE); assay: as above; conditions: post-emerge, phytotoxicity rating 0-100 at 14 days after application
Procedure, shortened: as §2

[15] = test system: johnsongrass (Sorghum halepense, SORHA); assay: as above; conditions: post-emerge, phytotoxicity rating 0-100 at 14 days after application
Procedure, shortened: as §2

[16] = test system: lambsquarters (Chenopodium album, CHEAL); assay: as above; conditions: post-emerge, phytotoxicity rating 0-100 at 14 days after application
Procedure, shortened: as §2

[17] = test system: large crabgrass (Digitaria sanguinalis, DIGSA); assay: as above; conditions: post-emerge, phytotoxicity rating 0-100 at 14 days after application
Procedure, shortened: as §2

[18] = test system: redroot pigweed (Amaranthus retroflexus, AMARE); assay: as above; conditions: post-emerge, phytotoxicity rating 0-100 at 14 days after application
Procedure, shortened: as §2

[19] = test system: sicklepod (Cassia obtusifolia, CASOB); assay: as above; conditions: post-emerge, phytotoxicity rating 0-100 at 14 days after application
Procedure, shortened: as §2

[20] = test system: velvetleaf (Abutilon theophrasti, ABUTH); assay: as above; conditions: post-emerge, phytotoxicity rating 0-100 at 14 days after application
Procedure, shortened: as §2

[21] = test system: field corn (Zea mays L., var. Dekalb 535, CORN); assay: Post-emerge test, crop safety; conditions: post-emerge, crop damage rating 0-100 at 14 days after application
Procedure, shortened: as §1

[22] = test system: upland rice (Oryza sp., var. Tebonnet, RICE); assay: Post-emerge test, crop safety; conditions: post-emerge, crop damage rating 0-100 at 14 days after application
Procedure, shortened: as §1

Nc1c(O)c(Cl)cc(F)c1N1C(=O)C2CCCCN2C1=S (single isomer, unassigned) [12-3]
Pre-emerge herbicidal activity, phytotoxicity rating AMARE ([1]; 63 g ai/ha): 95 | Pre-emerge herbicidal activity, phytotoxicity rating AMARE ([1]; 250 g ai/ha): 100 | Pre-emerge herbicidal activity, phytotoxicity rating ECHCG ([2]; 63 g ai/ha): 0 | Pre-emerge herbicidal activity, phytotoxicity rating ECHCG ([2]; 250 g ai/ha): 0 | Pre-emerge herbicidal activity, phytotoxicity rating SETVI ([3]; 63 g ai/ha): 0 | Pre-emerge herbicidal activity, phytotoxicity rating SETVI ([3]; 250 g ai/ha): 30 | Pre-emerge herbicidal activity, phytotoxicity rating IPOHE ([4]; 63 g ai/ha): 0 | Pre-emerge herbicidal activity, phytotoxicity rating IPOHE ([4]; 250 g ai/ha): 90 | Pre-emerge herbicidal activity, phytotoxicity rating SORHA ([5]; 63 g ai/ha): 0 | Pre-emerge herbicidal activity, phytotoxicity rating SORHA ([5]; 250 g ai/ha): 0 | Pre-emerge herbicidal activity, phytotoxicity rating CHEAL ([6]; 63 g ai/ha): 100 | Pre-emerge herbicidal activity, phytotoxicity rating CHEAL ([6]; 250 g ai/ha): 100 | Pre-emerge herbicidal activity, phytotoxicity rating DIGSA ([7]; 63 g ai/ha): 0 | Pre-emerge herbicidal activity, phytotoxicity rating DIGSA ([7]; 250 g ai/ha): 30 | Pre-emerge herbicidal activity, phytotoxicity rating CASOB ([8]; 63 g ai/ha): 30 | Pre-emerge herbicidal activity, phytotoxicity rating CASOB ([8]; 250 g ai/ha): 70 | Pre-emerge herbicidal activity, phytotoxicity rating ABUTH ([9]; 63 g ai/ha): 100 | Pre-emerge herbicidal activity, phytotoxicity rating ABUTH ([9]; 250 g ai/ha): 100 | Pre-emerge phytotoxicity rating, crop damage CORN ([10]; 63 g ai/ha): 0 | Pre-emerge phytotoxicity rating, crop damage CORN ([10]; 250 g ai/ha): 0 | Pre-emerge phytotoxicity rating, crop damage RICE ([11]; 63 g ai/ha): 10 | Pre-emerge phytotoxicity rating, crop damage RICE ([11]; 250 g ai/ha): 20 | Post-emerge Herbicidal Activity ECHCG ([12]; 63 g ai/ha): 0 | Post-emerge Herbicidal Activity ECHCG ([12]; 250 g ai/ha): 10 | Post-emerge Herbicidal Activity SETVI ([13]; 63 g ai/ha): 0 | Post-emerge Herbicidal Activity SETVI ([13]; 250 g ai/ha): 0 | Post-emerge Herbicidal Activity IPOHE ([14]; 63 g ai/ha): 50 | Post-emerge Herbicidal Activity IPOHE ([14]; 250 g ai/ha): 90 | Post-emerge Herbicidal Activity SORHA ([15]; 63 g ai/ha): 0 | Post-emerge Herbicidal Activity SORHA ([15]; 250 g ai/ha): 50 | Post-emerge Herbicidal Activity CHEAL ([16]; 63 g ai/ha): 90 | Post-emerge Herbicidal Activity CHEAL ([16]; 250 g ai/ha): 100 | Post-emerge Herbicidal Activity DIGSA ([17]; 63 g ai/ha): 0 | Post-emerge Herbicidal Activity DIGSA ([17]; 250 g ai/ha): 0 | Post-emerge Herbicidal Activity AMARE ([18]; 63 g ai/ha): 95 | Post-emerge Herbicidal Activity AMARE ([18]; 250 g ai/ha): 99 | Post-emerge Herbicidal Activity CASOB ([19]; 63 g ai/ha): 20 | Post-emerge Herbicidal Activity CASOB ([19]; 250 g ai/ha): 80 | Post-emerge Herbicidal Activity ABUTH ([20]; 63 g ai/ha): 90 | Post-emerge Herbicidal Activity ABUTH ([20]; 250 g ai/ha): 90 | Post-emerge Herbicidal Activity CORN ([21]; 63 g ai/ha): 5 | Post-emerge Herbicidal Activity CORN ([21]; 250 g ai/ha): 10 | Post-emerge Herbicidal Activity RICE ([22]; 63 g ai/ha): 0 | Post-emerge Herbicidal Activity RICE ([22]; 250 g ai/ha): 5
